Publication PMC9120017, “Inhibition mechanism of the chloride channel TMEM16A by the pore blocker 1PBC” (Nature Communications, 2022)
Read-outs that look alike come from different tables or passages of the source.

Target: T1, mouse TMEM16A mutant I551A (Mus musculus, UniProt Q8BHY3, I551A)
T1 construct: expressed in transfected cells; host or cells: HEK293T
T1 sequence (Q8BHY3 1-960 I551A): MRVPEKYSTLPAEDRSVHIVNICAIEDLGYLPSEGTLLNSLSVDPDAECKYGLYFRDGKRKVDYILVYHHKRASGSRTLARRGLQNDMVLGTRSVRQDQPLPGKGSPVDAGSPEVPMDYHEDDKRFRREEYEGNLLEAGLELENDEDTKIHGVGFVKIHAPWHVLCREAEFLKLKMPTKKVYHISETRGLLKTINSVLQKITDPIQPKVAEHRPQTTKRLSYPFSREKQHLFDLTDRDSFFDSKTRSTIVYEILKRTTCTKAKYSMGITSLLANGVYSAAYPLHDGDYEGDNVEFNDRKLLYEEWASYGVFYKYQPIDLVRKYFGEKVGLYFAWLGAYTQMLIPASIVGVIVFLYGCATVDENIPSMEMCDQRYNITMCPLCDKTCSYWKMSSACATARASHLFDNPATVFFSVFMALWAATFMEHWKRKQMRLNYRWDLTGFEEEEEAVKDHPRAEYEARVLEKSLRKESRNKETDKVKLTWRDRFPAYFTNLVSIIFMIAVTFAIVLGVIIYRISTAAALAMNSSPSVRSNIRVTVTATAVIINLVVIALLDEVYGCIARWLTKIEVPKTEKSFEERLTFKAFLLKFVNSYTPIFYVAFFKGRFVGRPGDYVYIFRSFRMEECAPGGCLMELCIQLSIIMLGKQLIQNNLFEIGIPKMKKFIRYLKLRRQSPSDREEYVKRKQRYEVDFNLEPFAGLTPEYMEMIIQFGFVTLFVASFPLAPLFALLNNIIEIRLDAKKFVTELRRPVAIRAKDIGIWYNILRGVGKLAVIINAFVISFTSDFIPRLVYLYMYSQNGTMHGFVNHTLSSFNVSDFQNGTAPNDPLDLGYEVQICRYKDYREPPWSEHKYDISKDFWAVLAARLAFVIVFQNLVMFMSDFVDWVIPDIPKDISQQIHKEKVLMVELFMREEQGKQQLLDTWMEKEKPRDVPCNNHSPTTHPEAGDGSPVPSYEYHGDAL
Assay: Inside-out patch recording of 1PBC block, constitutively active mutant I551A
Type: cell-based
Conditions: for remaining activity at 3 µM: 3 µM 1PBC; for remaining activity at 10 µM: 10 µM 1PBC; for remaining activity at 30 µM: 30 µM 1PBC
Experimental: HEK293T cells (ATCC CRL-1573) were maintained in Dulbecco’s modified Eagle’s medium (DMEM; Sigma-Aldrich) supplemented with 10 U ml^−1 penicillin, 0.1 mg ml^−1 streptomycin (Sigma-Aldrich), 2 mM L-glutamine (Sigma-Aldrich), and 10% FBS (Sigma-Aldrich) in a humidified atmosphere containing 5% CO2 at 37 °C. HEK293S GnTI^− cells (ATCC CRL-3022) were maintained in HyClone HyCell TransFx-H medium (GE Healthcare) supplemented with 10 U ml^−1 penicillin, 0.1 mg ml^−1 streptomycin, 4 mM L-glutamine, 0.15% poloxamer 188 (Sigma-Aldrich), and 1% FBS in an atmosphere containing 5% CO2 at 185 rpm at 37 °C. The ac splice variant of mouse TMEM16A (UniProt ID: Q8BHY3), mouse TMEM16B (UniProt ID: Q8CFW1), or mouse TMEM16F (UniProt ID: Q6P9J9) bearing a 3C cleavage site, a Venus YFP, a Myc tag, and a Streptavidin-binding peptide (SBP) downstream of the open reading frame in a modified pcDNA3.1 vector (Invitrogen) were used as described previously[21],[31]. Mutations were introduced using a modified QuikChange method[58] and were verified by sequencing.
HEK293T cells were transfected with 3–4 μg DNA per 6 cm Petri dish using the calcium phosphate co-precipitation method and were used within 24–96 h after transfection. Recordings were performed on inside-out patches excised from HEK293T cells expressing the construct of interest. Patch pipettes were pulled from borosilicate glass capillaries (O.D. 1.5 mm, I.D. 0.86 mm, Sutter Instrument) and were fire-polished with a microforge (Narishige) before use. Pipette resistance was typically 3–8 MΩ when filled with the recording solutions detailed below. Seal resistance was typically 4 GΩ or higher. Voltage-clamp recordings were made using Axopatch 200B, Digidata 1550, and Clampex 10.7 (Molecular Devices). Analog signals were filtered with the in-built 4-pole Bessel filter at 10 kHz and were digitized at 20 kHz. Solution exchange was achieved using a gravity-fed system through a theta glass pipette mounted on an ultra-fast piezo-driven stepper (Siskiyou). […] All recordings were performed at 20 °C.
A symmetrical ionic condition was used throughout. Stock solution with Ca^2+-EGTA contained 150 mM NaCl, 5.99 mM Ca(OH)2, 5 mM EGTA, and 10 mM HEPES at pH 7.40. Stock solution with EGTA contained 150 mM NaCl, 5 mM EGTA, and 10 mM HEPES at pH 7.40. Free Ca^2+ concentrations were adjusted by mixing the stock solutions at the required ratios calculated using the WEBMAXC program (http://web.stanford.edu/~cpatton/webmaxcS.htm). Patch pipettes were filled with the stock solution with Ca^2+-EGTA, which has a free Ca^2+ concentration of 1 mM. 1PBC (ChemBridge) stock was reconstituted in anhydrous DMSO (Sigma-Aldrich) at 100 mM and stored at −20 °C. Working solutions with 1PBC were prepared by serial dilution. Unless otherwise stated, experiments were performed at a saturating Ca^2+ concentration as shown in Supplementary Table 1 and the primary data were corrected for current rundown as described previously[21],[25].
Concentration-response relations, obtained from the ratio of the I-V plots before and after the application of the blocker, were fitted to the Hill equation,1 I/Imax=1/1+IC50/[blocker]^h where I/Imax is the normalized current responses, IC50 defines the concentration at which inhibition is at its half-maximum, and h is the Hill coefficient.

[1] = 0 mV, 2 µM Ca2+, read-out: I/Imax
[2] = 0 mV, zero Ca2+, read-out: I/Imax

I/Imax_+80mV (0Ca, 3 μM 1PBC): 0.9297 | I/Imax_-80mV (0Ca, 3 μM 1PBC): 0.9659 | I/Imax_+80mV (0Ca, 10 μM 1PBC): 0.7725 | I/Imax_-80mV (0Ca, 10 μM 1PBC): 0.8504 | I/Imax_+80mV (0Ca, 30 μM 1PBC): 0.5277 | I/Imax_-80mV (0Ca, 30 μM 1PBC): 0.6475 | I/Imax_+80mV (0Ca, 100 μM 1PBC): 0.2921 | I/Imax_-80mV (0Ca, 100 μM 1PBC): 0.3933 | remaining activity at 1 µM (1 µM 1PBC, 0 mV, 2 µM Ca2+, read-out: I/Imax): 80.9% | remaining activity at 3 µM [1]: 60.1% | remaining activity at 3 µM [2]: 93.2% | remaining activity at 10 µM [1]: 31.1% | remaining activity at 10 µM [2]: 80.6% | remaining activity at 30 µM [1]: 14.8% | remaining activity at 30 µM [2]: 58.2% | remaining activity at 100 µM (100 µM 1PBC, 0 mV, zero Ca2+, read-out: I/Imax): 33.3% | I/Imax_+80mV (Ca, 1 μM 1PBC): 0.7719 | I/Imax_-80mV (Ca, 1 μM 1PBC): 0.9016 | I/Imax_+80mV (Ca, 3 μM 1PBC): 0.5347 | I/Imax_-80mV (Ca, 3 μM 1PBC): 0.7407 | I/Imax_+80mV (Ca, 10 μM 1PBC): 0.2656 | I/Imax_-80mV (Ca, 10 μM 1PBC): 0.4452 | I/Imax_+80mV (Ca, 30 μM 1PBC): 0.1169 | I/Imax_-80mV (Ca, 30 μM 1PBC): 0.2272
Compound: N#Cc1c(C(F)(F)F)cc(O)n2c1nc1ccccc12 [1PBC]
